# Source: article PMC5612753, “New lipases by mining of Pleurotus ostreatus genome” (PLoS ONE, 2017)
# Tests used:
# PleoLip369 = system: T1, PleoLip369; experiment: spectrophotometric p-nitrophenol release, […] nm; non-linear regression; type: biochemical, Pleurotus ostreatus; details: pH 8; substrate 0.001-1 mM
# T1 construct: signal peptide removed, codon-optimised synthetic gene behind alpha-factor signal, secreted from Pichia pastoris BG-10, purified by CM Sepharose; catalytic Ser266, Asp394, His512, pentapeptide GESAG
# PleoLip241 = system: T2, PleoLip241; experiment: as above; type: biochemical, Pleurotus ostreatus; details: pH 8; substrate 0.001-1 mM
# T2 construct: signal peptide removed, codon-optimised synthetic gene behind alpha-factor signal, secreted from Pichia pastoris BG-10, purified by CM Sepharose; catalytic Ser273, Asp403, His520, pentapeptide GQSAG
smiles,measurement,setting,value
"CCCCCCCC(=O)Oc1ccc([N+](=O)[O-])cc1 [pNP-C8, p-nitrophenyl octanoate]",Km,PleoLip369,510 ± 60 µM
"CCCCCCCCCCCCCC(=O)Oc1ccc([N+](=O)[O-])cc1 [pNP-C14, p-nitrophenyl myristate]",Km,PleoLip241,85 ± 4 µM
"CCCCCCCCCCCCCCCC(=O)Oc1ccc([N+](=O)[O-])cc1 [pNP-C16, p-nitrophenyl palmitate]",Km,PleoLip241,350 ± 38 µM
"CCCCCCCCCCCC(=O)Oc1ccc([N+](=O)[O-])cc1 [pNP-C12, p-nitrophenyl dodecanoate]",Km,PleoLip369,652 ± 75 µM
same,Km,PleoLip241,150 ± 6 µM
"CCCCCCCCCC(=O)Oc1ccc([N+](=O)[O-])cc1 [pNP-C10, p-nitrophenyl decanoate]",Km,PleoLip369,130 ± 20 µM
same,Km,PleoLip241,30 ± 5 µM
